Source: ChEMBL document CHEMBL1201862, “PubChem BioAssay data set” (2004)
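Cells were grown in 96-well plates and exposed to each compound for 48 hours at five concentrations; endpoints were interpolated linearly between bracketing concentrations, or set to the highest concentration if not reached. Here, GI50 denotes the concentration required for 50% inhibition of growth.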 Active and inactive are the calls of the source. No stated cut-off is given here; in the data, active = GI50 up to about 1.1 µM and inactive = higher.

Legend:
Assay in all cases: inhibition of tumour cell growth, NCI panel, 48 h
[1] = test system: BT-549
[2] = test system: UACC-257
[3] = test system: MDA-MB-231
[4] = test system: SNB-19
[5] = test system: SK-MEL-5
[6] = test system: MOLT-4
[7] = test system: HCT-15
[8] = test system: SW-620
[9] = test system: TK-10
[10] = test system: OVCAR-5
[11] = test system: MDA-MB-435
[12] = test system: HCC 2998
[13] = test system: MDA-N
[14] = test system: CCRF-CEM
[15] = test system: 786-0
[16] = test system: HOP-92
[17] = test system: PC-3
[18] = test system: LOX IMVI
[19] = test system: OVCAR-8
[20] = test system: SK-MEL-28
[21] = test system: Hs-578T
[22] = test system: SK-MEL-2
[23] = test system: EKVX
[24] = test system: HCT-116
[25] = test system: NCI-H460
[26] = test system: A498
[27] = test system: SNB-75
[28] = test system: M14
[29] = test system: HT-29
[30] = test system: ACHN
[31] = test system: RPMI-8226
[32] = test system: RXF 393
[33] = test system: UO-31
[34] = test system: IGROV-1
[35] = test system: K562
[36] = test system: DU-145
[37] = test system: CAKI-1
[38] = test system: NCI-H226
[39] = test system: NCI/ADR-RES
[40] = test system: T47D
[41] = test system: SF-295
[42] = test system: OVCAR-4
[43] = test system: U-251
[44] = test system: KM12
[45] = test system: NCI-H23
[46] = test system: OVCAR-3
[47] = test system: UACC-62
[48] = test system: SF-268
[49] = test system: COLO 205
[50] = test system: NCI-H522
[51] = test system: SN12C
[52] = test system: SK-OV-3
[53] = test system: HOP-62
[54] = test system: Malme-3M
[55] = test system: A549
[56] = test system: MCF7
[57] = test system: SF-539
[58] = test system: SR

SMILES: CC(=O)O[C@H]1C[C@@H](OC(C)=O)[C@@](C)(O)[C@@H]2[C@@H](OC(C)=O)[C@@]3(O)[C@H](/C=C(/CO)[C@H]4O[C@H]4[C@@H](OC(C)=O)[C@@]12C)OC(=O)[C@@H]3C
- GI50 [1]: > 25 µM (inactive)
- GI50 [2]: 13.7 µM (inactive)
- GI50 [3]: 7.06 µM (inactive)
- GI50 [4]: > 25 µM (inactive)
- GI50 [5]: 9.25 µM (inactive)
- GI50 [6]: 16.4 µM (inactive)
- GI50 [7]: 9.1 µM
- GI50 [8]: 11.5 µM (inactive)
- GI50 [9]: > 25 µM (inactive)
- GI50 [10]: > 25 µM (inactive)
- GI50 [11]: 5.42 µM (inactive)
- GI50 [12]: 8.91 µM (inactive)
- GI50 [13]: 3.09 µM (inactive)
- GI50 [14]: 6.59 µM (inactive)
- GI50 [15]: 7.64 µM (inactive)
- GI50 [16]: 17.5 µM (inactive)
- GI50 [17]: 6.04 µM (inactive)
- GI50 [18]: 8.71 µM (inactive)
- GI50 [19]: 12.7 µM (inactive)
- GI50 [20]: 22.3 µM (inactive)
- GI50 [21]: 8.43 µM (inactive)
- GI50 [22]: 6.89 µM (inactive)
- GI50 [23]: > 25 µM (inactive)
- GI50 [24]: 10.3 µM (inactive)
- GI50 [25]: 8.13 µM (inactive)
- GI50 [26]: > 25 µM (inactive)
- GI50 [27]: 5.53 µM (inactive)
- GI50 [28]: 10.8 µM (inactive)
- GI50 [29]: 11 µM (inactive)
- GI50 [30]: 16.3 µM (inactive)
- GI50 [31]: 9.86 µM (inactive)
- GI50 [32]: 2.08 µM (inactive)
- GI50 [33]: 22.5 µM (inactive)
- GI50 [34]: 8.17 µM (inactive)
- GI50 [35]: 17.7 µM (inactive)
- GI50 [36]: 5.27 µM (inactive)
- GI50 [37]: 17.7 µM (inactive)
- GI50 [38]: 9.73 µM (inactive)
- GI50 [39]: > 25 µM (inactive)
- GI50 [40]: 22.4 µM (inactive)
- GI50 [41]: 6.12 µM (inactive)
- GI50 [42]: > 25 µM (inactive)
- GI50 [43]: 6.1 µM (inactive)
- GI50 [44]: 13.5 µM (inactive)
- GI50 [45]: 16.8 µM (inactive)
- GI50 [46]: 5.51 µM (inactive)
- GI50 [47]: 7.64 µM (inactive)
- GI50 [48]: 19.1 µM (inactive)
- GI50 [49]: 9.35 µM (inactive)
- GI50 [50]: 5.42 µM (inactive)
- GI50 [51]: 12.2 µM (inactive)
- GI50 [52]: 11.9 µM (inactive)
- GI50 [53]: 7.26 µM (inactive)
- GI50 [54]: 7.78 µM (inactive)
- GI50 [55]: 10.4 µM (inactive)

SMILES: CC[C@H](C)[C@H](NC(=O)[C@H](Cc1ccc(O)cc1)NCC(F)(F)F)C(=O)OC(C)(C)C
- GI50 [1]: 10.8 µM (inactive)
- GI50 [2]: 6.82 µM (inactive)
- GI50 [3]: 7.28 µM (inactive)
- GI50 [4]: 7.96 µM (inactive)
- GI50 [5]: 7.41 µM (inactive)
- GI50 [6]: 6.35 µM (inactive)
- GI50 [7]: 10.5 µM
- GI50 [8]: 9.82 µM (inactive)
- GI50 [9]: 8.09 µM (inactive)
- GI50 [10]: 8.63 µM (inactive)
- GI50 [11]: 7 µM (inactive)
- GI50 [12]: 7.29 µM (inactive)
- GI50 [13]: 8.32 µM (inactive)
- GI50 [15]: 8.15 µM (inactive)
- GI50 [16]: 8.99 µM (inactive)
- GI50 [17]: 6.43 µM (inactive)
- GI50 [18]: 8.67 µM (inactive)
- GI50 [19]: 12.4 µM (inactive)
- GI50 [20]: 9.38 µM (inactive)
- GI50 [21]: 10.3 µM (inactive)
- GI50 [22]: 6.53 µM (inactive)
- GI50 [23]: 6.87 µM (inactive)
- GI50 [24]: 7.18 µM (inactive)
- GI50 [25]: 6.22 µM (inactive)
- GI50 [56]: 7.74 µM (inactive)
- GI50 [26]: 7.31 µM (inactive)
- GI50 [27]: 7.89 µM (inactive)
- GI50 [28]: 7.03 µM (inactive)
- GI50 [29]: 7.6 µM (inactive)
- GI50 [30]: 7.33 µM (inactive)
- GI50 [31]: 6.64 µM (inactive)
- GI50 [32]: 7.16 µM (inactive)
- GI50 [57]: 9.71 µM (inactive)
- GI50 [33]: 7.64 µM (inactive)
- GI50 [34]: 7.5 µM (inactive)
- GI50 [35]: 8.61 µM (inactive)
- GI50 [37]: 7.01 µM (inactive)
- GI50 [58]: 5.97 µM (inactive)
- GI50 [38]: 9.06 µM (inactive)
- GI50 [39]: 11.7 µM (inactive)
- GI50 [40]: 4.51 µM (inactive)
- GI50 [41]: 6.9 µM (inactive)
- GI50 [42]: 5.64 µM (inactive)
- GI50 [43]: 6.85 µM (inactive)
- GI50 [44]: 7.78 µM (inactive)
- GI50 [45]: 8.59 µM (inactive)
- GI50 [47]: 5.69 µM (inactive)
- GI50 [48]: 9.71 µM (inactive)
- GI50 [49]: 8.05 µM (inactive)
- GI50 [50]: 7.31 µM (inactive)
- GI50 [51]: 8.81 µM (inactive)
- GI50 [52]: 8.11 µM (inactive)
- GI50 [53]: 9.25 µM (inactive)
- GI50 [54]: 10.2 µM (inactive)
- GI50 [55]: 5.41 µM (inactive)

SMILES: COc1c(-c2nc3ccc(N4CCN(C)CC4)nc3[nH]2)cc(OC)c2[nH]c(CO)nc12
- GI50 [1]: > 100 µM (inactive)
- GI50 [2]: > 100 µM (inactive)
- GI50 [3]: 44.1 µM (inactive)
- GI50 [4]: 42.6 µM (inactive)
- GI50 [5]: > 100 µM (inactive)
- GI50 [6]: 52.2 µM (inactive)
- GI50 [7]: > 100 µM
- GI50 [8]: > 100 µM (inactive)
- GI50 [9]: > 100 µM (inactive)
- GI50 [10]: > 100 µM (inactive)
- GI50 [11]: 56.8 µM (inactive)
- GI50 [12]: 38.2 µM (inactive)
- GI50 [13]: > 100 µM (inactive)
- GI50 [15]: 69.3 µM (inactive)
- GI50 [16]: > 100 µM (inactive)
- GI50 [18]: 85.5 µM (inactive)
- GI50 [19]: > 100 µM (inactive)
- GI50 [20]: > 100 µM (inactive)
- GI50 [21]: > 100 µM (inactive)
- GI50 [22]: 32 µM (inactive)
- GI50 [23]: > 100 µM (inactive)
- GI50 [24]: 54.7 µM (inactive)
- GI50 [25]: > 100 µM (inactive)
- GI50 [56]: 11.2 µM (inactive)
- GI50 [26]: > 100 µM (inactive)
- GI50 [27]: 95.5 µM (inactive)
- GI50 [28]: > 100 µM (inactive)
- GI50 [29]: > 100 µM (inactive)
- GI50 [30]: > 100 µM (inactive)
- GI50 [32]: > 100 µM (inactive)
- GI50 [57]: 22.5 µM (inactive)
- GI50 [33]: > 100 µM (inactive)
- GI50 [34]: > 100 µM (inactive)
- GI50 [35]: 58.1 µM (inactive)
- GI50 [36]: > 100 µM (inactive)
- GI50 [37]: > 100 µM (inactive)
- GI50 [58]: > 100 µM (inactive)
- GI50 [38]: 36.1 µM (inactive)
- GI50 [39]: > 100 µM (inactive)
- GI50 [40]: 37.1 µM (inactive)
- GI50 [41]: > 100 µM (inactive)
- GI50 [42]: 70 µM (inactive)
- GI50 [43]: 29.6 µM (inactive)
- GI50 [44]: 93.5 µM (inactive)
- GI50 [45]: > 100 µM (inactive)
- GI50 [46]: 39.3 µM (inactive)
- GI50 [47]: 82.2 µM (inactive)
- GI50 [48]: 92.3 µM (inactive)
- GI50 [49]: > 100 µM (inactive)
- GI50 [50]: 52.4 µM (inactive)
- GI50 [51]: 53 µM (inactive)
- GI50 [52]: > 100 µM (inactive)
- GI50 [53]: 99.5 µM (inactive)
- GI50 [54]: > 100 µM (inactive)
- GI50 [55]: > 100 µM (inactive)
